Results on six compounds are retold here after ChEMBL document CHEMBL1201862, “PubChem BioAssay data set” (2004).

Some test systems named below: SK-MEL-2; OVCAR-4; EKVX; SK-MEL-28; CAKI-1; MDA-MB-435; PC-3; OVCAR-8; RPMI-8226; A498; IGROV-1; HOP-62; NCI-H522; U-251; HCT-15; RXF 393; HCC 2998; HOP-92; OVCAR-3.
Assay in all cases: NCI anticancer screen, dose series, 48 h

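Cultured in 96-well plates, cells were exposed to test compound for 48 hours across five concentrations. The concentration for 50% growth inhibition is given as GI50.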 Active and inactive are the calls of the source. No stated cut-off is given here; in the data, active = GI50 up to about 1.1 µM and inactive = higher.

In the case of `COc1ccc(Cc2c(-c3ccc(C)cc3)n[nH]c(=O)c2C2C(=O)N(c3ccccc3)N=C2c2ccccc2)cc1` (centres undefined), the GI50 in the assay with SK-MEL-2 was 21.9 µM (inactive); in the assay on OVCAR-4 it was 48.2 µM (inactive); in the assay on EKVX, 26.8 µM (inactive); in the assay with SK-MEL-28, 33 µM (inactive); in the assay on CAKI-1, 37.1 µM (inactive); in the assay on MDA-MB-435, 20.3 µM (inactive). Moreover, the GI50 was 26.7 µM (inactive) in the assay on PC-3; 30.3 µM (inactive) with OVCAR-8; 42 µM (inactive) in the assay with RPMI-8226; 30.2 µM (inactive) in the assay on A498; 32.1 µM (inactive) in the assay with IGROV-1; 40.1 µM (inactive) in the assay on HOP-62. Moreover, the GI50 in the assay on NCI-H522 was 44.3 µM (inactive); in the assay on U-251, 34.8 µM (inactive); in the assay on HCT-15 it was 42.9 µM; with RXF 393, 26.7 µM (inactive); in the assay on HCC 2998, 27.6 µM (inactive); with HOP-92, 28 µM (inactive). For the same compound, the GI50 with OVCAR-3 is 19 µM (inactive).
As for `CCCS(=O)OC1C(C2COC(C)(C)O2)OC2OC(C)(C)OC21` (centres undefined), the GI50 in the assay with SK-MEL-2 is 16.1 µM (inactive); in the assay on OVCAR-4, 15.2 µM (inactive); with EKVX, 16.4 µM (inactive); with SK-MEL-28 it was 14.5 µM (inactive); in the assay with CAKI-1, 11.6 µM (inactive); in the assay with MDA-MB-435, 6.31 µM (inactive). The GI50 with PC-3 is 2.87 µM (inactive); in the assay on OVCAR-8, 10.5 µM (inactive); in the assay on RPMI-8226, 2.88 µM (inactive); with A498, 32.1 µM (inactive); in the assay with IGROV-1, 14.3 µM (inactive); with HOP-62, 13.6 µM (inactive). In addition, the GI50 with NCI-H522 is 9.27 µM (inactive); in the assay on U-251, 8.26 µM (inactive); with HCT-15, 13.7 µM; in the assay with RXF 393 it was 9.59 µM (inactive); in the assay on HCC 2998, 16.5 µM (inactive); in the assay with HOP-92 it was 5.87 µM (inactive). The GI50 in the assay on OVCAR-3 is 15.1 µM (inactive).
On to `CC1OC(O[C@H]2CC[C@]3(C=O)[C@H]4CC[C@]5(C)[C@H](C6=CC(=O)OC6)CC[C@]5(O)[C@@H]4C=C[C@]3(O)C2)CC(O)C1O` (some centres undefined), for which the GI50 with SK-MEL-2 was 0.505 µM (active); in the assay on OVCAR-4, 0.349 µM (active); in the assay with EKVX, 0.261 µM (active); in the assay on SK-MEL-28 it was 0.692 µM (active); in the assay with CAKI-1, 0.103 µM (active); with MDA-MB-435, 0.346 µM (active). Also, the GI50 in the assay with PC-3 was 0.306 µM (active); with OVCAR-8, 0.346 µM (active); in the assay with RPMI-8226, 0.136 µM (active); in the assay on A498 it was 0.176 µM (active); in the assay on IGROV-1 it was 0.157 µM (active); with HOP-62, 0.188 µM (active). The GI50 in the assay with NCI-H522 was 0.0615 µM (active); with U-251, 0.355 µM (active); with HCT-15, 0.289 µM; in the assay on RXF 393, 0.0661 µM (active); in the assay with HCC 2998, 0.836 µM (active); in the assay with HOP-92, 0.577 µM (active). Further, the GI50 with OVCAR-3 is 0.15 µM (active).
Regarding `COC1(C)CCC(OS(C)(=O)=O)CO1` (centres undefined), the GI50 in the assay with SK-MEL-2, in the assay with OVCAR-4, in the assay with EKVX, in the assay on SK-MEL-28, with CAKI-1 and with MDA-MB-435 was > 100 µM (inactive) each time. The GI50 in the assay on PC-3, in the assay with OVCAR-8, with RPMI-8226, with A498, with IGROV-1 and with HOP-62 was > 100 µM (inactive) throughout. Further, the GI50 in the assay with NCI-H522 was > 100 µM (inactive); in the assay on U-251, > 100 µM (inactive); in the assay with HCT-15, over 100 µM; in the assay with RXF 393 it was > 100 µM (inactive); in the assay with HCC 2998 it was > 100 µM (inactive); with HOP-92, > 100 µM (inactive). In addition, in the assay on OVCAR-3, the GI50 is > 100 µM (inactive).
As for `Cc1cc(O)c(C(C)C)cc1/N=C/c1ccccc1O`, the GI50 is 11 µM (inactive) in the assay on SK-MEL-2; 2.41 µM (inactive) with OVCAR-4; 7.87 µM (inactive) with EKVX; 15.1 µM (inactive) with SK-MEL-28; 12.1 µM (inactive) in the assay on CAKI-1; 1.99 µM (inactive) with MDA-MB-435. The GI50 in the assay on PC-3 is 5.08 µM (inactive); in the assay with OVCAR-8, 1.8 µM (inactive); with RPMI-8226, 0.278 µM (active); in the assay with A498, 23.6 µM (inactive); with IGROV-1 it was 8.43 µM (inactive); with HOP-62, 11.7 µM (inactive). For the same compound, the GI50 in the assay on NCI-H522 is 3.72 µM (inactive); with U-251, 3.55 µM (inactive); in the assay on HCT-15, 3.97 µM; with RXF 393 it was 1.34 µM (inactive); with HCC 2998 it was 7.29 µM (inactive); in the assay with HOP-92, 0.621 µM (active). The GI50 in the assay with OVCAR-3 is 2.48 µM (inactive).
With `CCOC(=O)C1=C(C)N(Cc2ccccc2)C2(O)C(OC)CC(=O)C3C(=O)N(c4ccccc4)C(=O)C132` (centres undefined), the GI50 in the assay on SK-MEL-2 was 7.57 µM (inactive); in the assay on OVCAR-4, 4.84 µM (inactive); in the assay on EKVX, 23.7 µM (inactive); in the assay with SK-MEL-28, 7.33 µM (inactive); in the assay with CAKI-1, 17 µM (inactive); in the assay with MDA-MB-435 it was 5.05 µM (inactive). In addition, the GI50 in the assay on PC-3 is 7.73 µM (inactive); in the assay on OVCAR-8, 5.53 µM (inactive); in the assay with RPMI-8226, 2.69 µM (inactive); with A498, 21.5 µM (inactive); in the assay on IGROV-1, 15.7 µM (inactive); with HOP-62, 6.81 µM (inactive). In addition, the GI50 is 5.98 µM (inactive) with NCI-H522; 6.53 µM (inactive) in the assay on U-251; 5.75 µM with HCT-15; 5.69 µM (inactive) with RXF 393; 12.4 µM (inactive) in the assay with HCC 2998; 14.2 µM (inactive) with HOP-92. In the assay with OVCAR-3, the GI50 is 7.41 µM (inactive).
